Test results reported in PubChem BioAssay AID1963962 (Molecular Pharmacology Branch, DTP, NCI, 2024).
Several values for one entry are separate records, joined by “and”; a condition that tells them apart may be missing. Equal entries are not always repeated. Each block holds one compound with its values, some of them ahead of it.

Test system: 967376-340-R-J2-PDC multicell spheroid viability
Assay: Anticancer human tumor 967376-340-R-J2-PDC patient-derived colon adenocarcinoma cell line growth inhibition [PI3K]
Details: for viability, T/C: stronger effect = lower value
Procedure, shortened: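 Agents were dosed from a top concentration near clinical Cmax (otherwise 10 microM) in half-log decrements, alone or combined with PI3K inhibitors. The spheroids contain tumor cells plus endothelial (HUVEC) and MSC stroma; viability is measured.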

[1] = curve of first compound, second compound 0.0316 µM
[2] = curve of first compound, second compound 0.1 µM
[3] = curve of first compound, second compound 0.316 µM
[4] = curve of first compound, second compound 1 µM
[5] = second compound 0.0316 µM, first compound 0.0316 µM
[6] = second compound 0.0316 µM, first compound 0.1 µM
[7] = second compound 0.0316 µM, first compound 0.316 µM
[8] = second compound 0.0316 µM, first compound 1 µM
[9] = second compound 0.0316 µM, first compound 3.16 µM
[10] = second compound 0.0316 µM, first compound 10 µM
[11] = second compound 0.1 µM, first compound 0.0316 µM
[12] = second compound 0.1 µM, first compound 0.1 µM
[13] = second compound 0.1 µM, first compound 0.316 µM
[14] = second compound 0.1 µM, first compound 1 µM
[15] = second compound 0.1 µM, first compound 3.16 µM
[16] = second compound 0.1 µM, first compound 10 µM
[17] = second compound 0.316 µM, first compound 0.0316 µM
[18] = second compound 0.316 µM, first compound 0.1 µM
[19] = second compound 0.316 µM, first compound 0.316 µM
[20] = second compound 0.316 µM, first compound 1 µM
[21] = second compound 0.316 µM, first compound 3.16 µM
[22] = second compound 0.316 µM, first compound 10 µM
[23] = second compound 1 µM, first compound 0.0316 µM
[24] = second compound 1 µM, first compound 0.1 µM
[25] = second compound 1 µM, first compound 0.316 µM
[26] = second compound 1 µM, first compound 1 µM
[27] = second compound 1 µM, first compound 3.16 µM
[28] = second compound 1 µM, first compound 10 µM
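Also: spheroids exposed to agents for 7 days before read-out.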
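For viability, T/C in this document: luminescence used as surrogate of cell viability.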

IC50 [1]: > 10 µM | IC50 [2]: > 10 µM | IC50 [3]: > 10 µM | IC50 [4]: > 10 µM | IC50 (curve of first compound, second compound 3.16 µM): > 10 µM | IC50 (curve of first compound, second compound 10 µM): > 10 µM
SMILES: CC(C)NCC(C(=O)N1CCN(c2ncnc3c2C(C)CC3O)CC1)c1ccc(Cl)cc1 (stereo unspecified) + CC(Nc1ncnc2nc[nH]c12)c1cc2cccc(Cl)c2c(=O)n1-c1ccccc1
viability, T/C [5]: 100% | viability, T/C [6]: 80.4% | viability, T/C [7]: 101% | viability, T/C [8]: 96.1% | viability, T/C [9]: 88.6% | viability, T/C [10]: 86.5% | viability, T/C [11]: 102% | viability, T/C [12]: 85% | viability, T/C [13]: 85.4% | viability, T/C [14]: 83.5% | viability, T/C [15]: 84.8% | viability, T/C [16]: 65.1% | viability, T/C [17]: 111% | viability, T/C [18]: 104% | viability, T/C [19]: 101% | viability, T/C [20]: 96.7% | viability, T/C [21]: 90.7% | viability, T/C [22]: 78.5% | viability, T/C [23]: 84.2% | viability, T/C [24]: 90.5% | viability, T/C [25]: 83.9% | viability, T/C [26]: 102% | viability, T/C [27]: 87.4% | viability, T/C [28]: 77.1% | viability, T/C (second compound 3.16 µM, first compound 0.0316 µM): 94% | viability, T/C (second compound 3.16 µM, first compound 0.1 µM): 64.8% | viability, T/C (second compound 3.16 µM, first compound 0.316 µM): 77.5% | viability, T/C (second compound 3.16 µM, first compound 1 µM): 91.1% | viability, T/C (second compound 3.16 µM, first compound 3.16 µM): 93.1% | viability, T/C (second compound 3.16 µM, first compound 10 µM): 79.4% | viability, T/C (second compound 10 µM, first compound 0.0316 µM): 94.8% | viability, T/C (second compound 10 µM, first compound 0.1 µM): 90.5% | viability, T/C (second compound 10 µM, first compound 0.316 µM): 68.4% | viability, T/C (second compound 10 µM, first compound 1 µM): 94.2% | viability, T/C (second compound 10 µM, first compound 3.16 µM): 76.2% | viability, T/C (second compound 10 µM, first compound 10 µM): 86.9%

IC50 (curve of first compound, second compound 0.00316 µM): > 10 µM | IC50 (curve of first compound, second compound 0.01 µM): > 10 µM | IC50 [1]: > 10 µM | IC50 [2]: > 10 µM | IC50 [3]: > 10 µM | IC50 [4]: > 10 µM
SMILES: CNC(=O)c1ccc(N2C(=S)N(c3ccc(C#N)c(C(F)(F)F)c3)C(=O)C2(C)C)cc1F + CC(Nc1ccc2c(c1)OCCn1cc(N3C(=O)OCC3C(F)F)nc1-2)C(N)=O
viability, T/C (second compound 0.00316 µM, first compound 0.0316 µM): 90.3% | viability, T/C (second compound 0.00316 µM, first compound 0.1 µM): 107% | viability, T/C (second compound 0.00316 µM, first compound 0.316 µM): 93.1% | viability, T/C (second compound 0.00316 µM, first compound 1 µM): 93.2% | viability, T/C (second compound 0.00316 µM, first compound 3.16 µM): 112% | viability, T/C (second compound 0.00316 µM, first compound 10 µM): 161% | viability, T/C (second compound 0.01 µM, first compound 0.0316 µM): 102% | viability, T/C (second compound 0.01 µM, first compound 0.1 µM): 97.8% | viability, T/C (second compound 0.01 µM, first compound 0.316 µM): 94.3% | viability, T/C (second compound 0.01 µM, first compound 1 µM): 89.5% | viability, T/C (second compound 0.01 µM, first compound 3.16 µM): 106% | viability, T/C (second compound 0.01 µM, first compound 10 µM): 136% | viability, T/C [5]: 83.1% | viability, T/C [6]: 107% | viability, T/C [7]: 94.1% | viability, T/C [8]: 76.7% | viability, T/C [9]: 100% | viability, T/C [10]: 99.5% | viability, T/C [11]: 72.4% | viability, T/C [12]: 73.1% | viability, T/C [13]: 73.5% | viability, T/C [14]: 81.1% | viability, T/C [15]: 77.4% | viability, T/C [16]: 81% | viability, T/C [17]: 60.4% | viability, T/C [18]: 60.6% | viability, T/C [19]: 72.5% | viability, T/C [20]: 66.5% | viability, T/C [21]: 62.1% | viability, T/C [22]: 67.5% | viability, T/C [23]: 57.3% | viability, T/C [24]: 66% | viability, T/C [25]: 62.7% | viability, T/C [26]: 60.8% | viability, T/C [27]: 61.6% | viability, T/C [28]: 67.5%

IC50 (curve of compound): > 0.1 µM
SMILES: Cn1ncnc1[C@H]1c2n[nH]c(=O)c3cc(F)cc(c23)N[C@@H]1c1ccc(F)cc1
viability, T/C (compound 0.000316 µM): 78.6% and 114% and 95.8% | viability, T/C (compound 0.001 µM): 82.5% and 93.1% and 84.2% | viability, T/C (compound 0.00316 µM): 90.3% and 94.6% and 70.5% | viability, T/C (compound 0.01 µM): 103% and 104% and 90.4% | viability, T/C (compound 0.0316 µM): 93.2% and 88.8% and 97.9% | viability, T/C (compound 0.1 µM): 92.5% and 99.6% and 94.7%
